Reference: patent US9302996B2, “Continuous arycyclic compound” (MITSUBISHI TANABE PHARMA CORPORATION, priority 2010, dated 2016)
Like-named read-outs stand apart in the source and are kept apart here. Marks after values point to notes of the source that are not given here.

Assays:
Assay type in all cases: in vivo
[1] = system: C57BL/6J mice; test: Antifeeding activity (high fat diet intake up to 4 hours); settings: Mus musculus, male C57BL/6J mice, 5 mg/kg oral, food ingested up to 4 hours, read-out: Antifeeding rate (5 mg/kg)
Experimental: 7 to 10 weeks-old male C57BL/6J mice were fasted overnight, and the test compound suspended in 0.2% carboxymethylcellulose solution was orally administered. Immediately after the administration, high fat diet (Oriental Yeast Co., Ltd, 60 cal % fat) was provided and freely fed. An amount of food ingested up to 4 hours was measured, and a lowering rate (an antifeeding rate) of the amount of food ingested in the Test compound administered group was calculated as compared to that of the solvent control group as a control.

[2] = system: ICR mice; test: Triglyceride (TG) in blood plasma increase-inhibiting action due to lipid administration; settings: Mus musculus; male ICR mice, 5 mg/kg oral, lipid (Intralipos 20%) after 30 minutes, plasma TG 2 hours after lipid; read-out: Inhibiting rate of TG-increase in blood plasma (5 mg/kg)
Experimental: 6 to 9 weeks-old male ICR mice were fasted overnight, and Test compound suspended in 0.2% carboxymethyl cellulose solution was orally administered to the mice. A lipid (Intralipos 20%, OTSUKA PHARMACEUTICAL CO., LTD., 10 mL/kg) was orally administered after 30 minutes. Blood was collected from tail vein immediately before the lipid administration, and after 2 hours from the same to obtain blood plasma. Measurement of TG in blood plasma was carried out by using a triglyceride E Test Wako (Wako Pure Chemical Industries, Ltd.), and an increased value of TG in blood plasma by administration of the lipid was calculated. An increased value of TG in blood plasma in a solvent control group was used as a control, and an inhibiting rate in increase of TG in blood plasma in the Test compound administered group was calculated.

[3] = system: KK-Ay mice; test: Weight gain-inhibiting action, hypoglycemic effect, insulin in blood plasma lowering action in KK-Ay mice; settings: male KK-Ay mice, high fat diet, 2 weeks; for inhibition in vivo at 30 mg/kg: Mus musculus, 336 h, 30 mg/kg/day oral
Experimental: To 8 weeks-old male KK-Ay mice were provided high fat diet (Oriental Yeast Co., Ltd, 60 cal % fat), and Test compound suspended in 0.2% carboxymethylcellulose solution was orally administered once a day. Oral administration was continued for 2 weeks, and a weight gain-inhibiting rate of the Test compound was calculated by using a weight gain amount of the solvent control group during the test period as 100%. After final administration, the mice were fasted overnight, and blood was collected from tail vein. Measurement of a blood-sugar level was carried out by using glucose Cα Test Wako (Wako Pure Chemical Industries, Ltd.), and measurement of insulin in blood plasma was carried out by using a mouse insulin measurement kit (Morinaga Institute of Biological Science, Inc.).

[4] = read-out: Hypoglycemic action (30 mg/kg/day)
[5] = read-out: Insulin in blood plasma-lowering action (30 mg/kg/day)
[6] = read-out: Weight gain-inhibiting action (30 mg/kg/day)
[7] = administration dose of 10 mg/kg/day oral

| SMILES | inhibition in vivo at 5 mg/kg [1] [%] | inhibition in vivo at 5 mg/kg [2] [%] | inhibition in vivo at 30 mg/kg [3, 4] [%] | inhibition in vivo at 30 mg/kg [3, 5] [%] | inhibition in vivo at 30 mg/kg [3, 6] [%] | Hypoglycemic action [3, 7] [%^#] | Insulin in blood plasma-lowering action [3, 7] [%^#] | Weight gain-inhibiting action [3, 7] [%^#] |
| --- | --- | --- | --- | --- | --- | --- | --- | --- |
| CC(C)(COc1ccc(-c2ccc(-c3ncc(C(F)(F)F)[nH]3)cc2)cn1)C(=O)O [Example 3-3), 2,2-dimethyl-3-[(5-{4-[5-(trifluoromethyl)-1H-imidazol-2-yl]phenyl}pyridin-2-yl)oxy]propanoic acid] | 76 | 78 | 41 | 51 | 52 |  |  |  |
| CC(C)(COc1ccc(-c2ccc(-c3ncc(C(F)(F)F)[nH]3)cn2)cc1F)C(=O)O [Example 4-2), 3-(2-fluoro-4-{5-[5-(trifluoromethyl)-1H-imidazol-2-yl]pyridin-2-yl}phenoxy)-2,2-dimethylpropanoic acid] | 82 | 60 | 50 | 52 | 49 |  |  |  |
| Cc1cc(-c2ccc(OCC(C)(C)C(=O)O)cc2)ncc1-c1ncc(C(F)(F)F)[nH]1 [Example 5-3), 2,2-dimethyl-3-(4-{4-methyl-5-[5-(trifluoromethyl)-1H-imidazol-2-yl]pyridin-2-yl}-phenoxy)propanoic acid] | 37 | 71 | 55 | 56 | 48 |  |  |  |
| CC(C)(COc1ccc(-c2ccc(-c3ncc(C4(C(F)(F)F)CC4)[nH]3)cn2)cc1)C(=O)O [Example 6-3), sodium 2,2-dimethyl-3-[4-(5-{5-[1-(trifluoromethyl)cyclopropyl]-1H-imidazol-2-yl]pyridin-2-yl}phenoxy)propanoate] | 71 | 78 | 63 | 72 |  |  |  |  |
| CC(C)(COc1ccc(-c2cnc(-c3ncc(C(F)(F)F)[nH]3)cn2)cc1)C(=O)O [Example 7-7), 2,2-dimethyl-3-(4-{5-[5-(trifluoromethyl)-1H-imidazol-2-yl]pyrazin-2-yl}phenoxy)-propanoic acid] | 75 | 71 | 62 | 58 | 66 |  |  |  |
| O=C(O)C1(COc2ccc(-c3ccc(-c4ncc(C(F)(F)F)[nH]4)cn3)cc2)CCC1 [Example 14] | 66 | 69 | 23 | 27 | 17 |  |  |  |
| CCC(CC)(COc1ccc(-c2ccc(-c3ncc(C(F)(F)F)[nH]3)cn2)cn1)C(=O)O [Example 22] | 69 | 76 | 40 | 47 | 30 |  |  |  |
| CCC(CC)(COc1ccc(-c2ccc(-c3ncc(C(F)(F)F)[nH]3)nc2)cn1)C(=O)O [Example 23] | 63 | 85 | -13 | 14 | 39 |  |  |  |
| CC(C)Cc1cnc(-c2ccc(-c3ccc(OCC(C)(C)C(=O)O)cc3)nc2)[nH]1 [Example 26] | 79 | 67 | 40 | 27 | 44 |  |  |  |
| CC(C)(COc1ccc(-c2ccc(-c3ncc(C4CC(F)(F)C4)[nH]3)cn2)cc1)C(=O)O [Example 33] | 44 | 54 | 42 | 41 | 39 |  |  |  |
| Cc1cc(OCC(C)(C)C(=O)O)ncc1-c1ccc(-c2ncc(C3(C(F)(F)F)CC3)[nH]2)nc1 [Example 36] | 63 | 69 | 23 | 19 | 59 |  |  |  |
| Cc1cc(OCC(C)(C)C(=O)O)ncc1-c1ccc(-c2ncc(C3(C(F)(F)F)CC3)[nH]2)cc1 [Example 39] | 76 | 54 | 44 | 50 | 38 |  |  |  |
| CC(C)(COc1ccc(-c2ccc(-c3ncc(C4(C(F)(F)F)CC4)[nH]3)c(F)c2)cn1)C(=O)O [Example 45] | 72 | 71 | 59 | 56 | 42 |  |  |  |
| Cc1cc(OCC(C)(C)C(=O)O)ncc1-c1ccc(-c2ncc(C3(C(F)(F)F)CC3)[nH]2)c(F)c1 [Example 54-4), 3-{[5-(3-fluoro-4-{5-[1-(trifluoromethyl)cyclopropyl]-1H-imidazol-2-yl]phenyl)-4-methylpyridin-2-yl}oxy}-2,2-dimethylpropanoic acid] | 46 | 74 | 74 | 93 | 113 |  |  |  |
| Cc1cc(OCC(C)(C)C(=O)O)ncc1-c1ccc(-c2ncc(C(F)(F)F)[nH]2)nc1 [Example 61-3), 2,2-dimethyl-3-({4-methyl-6′-[5-(trifluoromethyl)-1H-imidazol-2-yl]-3,3′-bipyridin-6-yl}oxy)propanoic acid] | 80 | 68 | 60 | 77 | 90 |  |  |  |
| Cc1cc(OCC(C)(C)C(=O)O)ncc1-c1ccc(-c2ncc(C(F)(F)F)[nH]2)c(F)c1 [Example 62-3), 3-[(5-{3-fluoro-4-[5-(trifluoromethyl)-1H-imidazol-2-yl]phenyl}-4-methylpyridin-2-yl)oxy]-2,2-dimethylpropanoic acid] | 63 | 85 | 80 | 95 | 161 |  |  |  |
| Cc1cc(OCC(C)(C)C(=O)O)ncc1-c1ccc(-c2ncc(C(F)(F)F)[nH]2)c(Cl)c1 [Example 63-3), 3-[(5-{3-chloro-4-[5-(trifluoromethyl)-1H-imidazol-2-yl]phenyl}-4-methylpyridin-2-yl)oxy]-2,2-dimethylpropanoic acid] | 83 | 60 | 77 | 90 | 115 |  |  |  |
| CC(C)(COc1ccc(-c2ccc(-c3ncc(C(F)(F)F)[nH]3)nc2)cn1)C(=O)O [Example 66] | 76 | 83 | 10 | 38 | 46 |  |  |  |
| CC(C)(COc1ccc(-c2ccc(-c3ncc(C(F)(F)C(F)(F)F)[nH]3)cn2)cc1)C(=O)O [Example 69] | 87 | 85 |  |  |  | 61 | 37 | 43 |
| CC(C)(COc1ccc(-c2cnc(-c3ncc(C(F)(F)F)[nH]3)c(F)c2)cn1)C(=O)O [Example 141] | 55 | 82 |  |  |  |  |  |  |
| CC(C)(COc1ncc(-c2ccc(-c3ncc(C(C)(C)C(F)(F)F)[nH]3)cc2)cc1F)C(=O)O [Example 143] | 4 | 55 |  |  |  |  |  |  |
